According to US9205064B2, “Methods for the diagnosis of oncological disorders using epimetabolic shifters, multidimensional intracellular molecules, or environmental influencers” (Berg LLC, priority 2009, dated 2015):

Experiments:
Assay type in all cases: cell-based
[1] = system: oncogenic and normal cell lines; assay: Minimal CoQ10 concentration and treatment time for induction of early apoptosis (Bcl-2, caspase activation, annexin V)
Experimental: CoQ10 treatment of cells was carried out as described in detail below in the Materials and Methods. Induction of apoptosis was assessed in the treated cells by monitoring indicators of early apoptosis (e.g., Bcl-2 expression, caspase activation and by using annexin V assays) as described below. From these studies, the minimal CoQ10 dosage, e.g., concentration of CoQ10 and time of treatment, required to induce apoptosis in the panel of cell lines was determined.
Cells were cultured in T-75 flasks with relevant medium supplemented with 10% Fetal Bovine Serum (FBS), 1% PSA (penicillin, streptomycin, amphotericin B) (Invitrogen and Cellgro) in a 37° C. incubator with 5% CO2 levels until 70-80% confluence was reached. To harvest cells for treatment, flasks were primed with 1 mL Trypsin, aspirated, trypsinized with an additional 3 mL, and incubated at 37° C. for 3-5 minutes. Cells were then neutralized with an equal volμme of media and the subsequent solution was centrifuged at 10,000 rpm for 8 minutes. The supernatant was aspirated and the cells were resuspended with 8.5 ml of media. A mixture of 500 ul of the resuspension and 9.5 ml of […] was read twice by a coulter counter and the appropriate number of cells to be seeded into each dish was determined Control and concentration ranging from 0-200 μM groups were examined in triplicate. From a 500 μM CoQ-10 stock solution, serial dilutions were performed to achieve desired experimental concentration in appropriate dishes. Dishes were incubated in a 37° C. incubator with 5% CO2 levels for 0-72 hours depending on cell type and experimental protocol.
Following cell treatment incubation period was complete, protein isolation was performed. Dishes of all treatment groups were washed twice with 2 ml, and once with 1 ml of ice cold 1× Phosphate Buffered Saline (PBS). The PBS was aspirated from the dishes after the initial 2 washes only. Cells were gently scraped and collected into microcentrifuge tubes using the final volume from the third wash and centrifuged at 10,000 rpm for 10 minutes. After centrifugation, the supernatant was aspirated and the pellet was lysed with 50 uL of lysis buffer (1 uL of protease and phosphotase inhibitor for every 100 uL of lysis buffer). Samples were then frozen overnight at −20° C.
After the cell treatment incubation period was complete, protein isolation was performed. Flasks of all treatment groups were washed twice with 5 mL, and once with 3 mL of ice cold 1×PBS. The PBS was aspirated from the flasks after the first 2 washes only. Cells were gently scraped and collected into 15 mL centrifuge tubes using the final volume from the third wash and centrifuged for at 10,000 rpm for 10 minutes. After centrifugation, the supernatant was aspirated and the pellet was lysed with an appropriate amount of lysis buffer (1 uL of protease and phosphotase inhibitor for every 100 uL of lysis buffer). Lysis buffer volume was dependent on pellet size. Samples were transferred in microcentrifuge tubes and frozen overnight at −20° C.
Samples were thawed at […] and sonicated to ensure homogenization the day following protein isolation. Protein quantification was performed using the micro BCA protein assay kit (Pierce). To prepare samples for Immuno-blotting, a 1:19 solution of betamercaptoethanol (Sigma) to sample buffer (Bio-Rad) was prepared. Samples were diluted 1:1 with the betamercaptoethanol-sample buffer solution, boiled at 95° C. for 5 minutes, and frozen overnight at −20° C.
The volume of sample to load per well was determined using the raw mean concentration of protein obtained from the BCA protein assay. Approximately 30-60 μg of protein were loaded for each treatment time point. Proteins were run in triplicate on 12% Tris-HCl ready gels (Bio-Rad) or hand cast gels in 1× running buffer at 85 and 100 volts. Proteins were then transferred onto nitrocellulose paper for an hour at 100 volts, and blocked for another hour in a 5% milk solution. […]

SCC cells = assay: Real-time PCR Diabetes Array; details: 100 μM Q10, at 6 hours
From the text: The control cells were untreated cells.
RNA was quantified by measuring Optical Density at 260 nm.

[2] = system: Pancreatic Cancer Cells (PaCa2); assay: Real-time PCR Angiogenesis Array; details: 100 uM Q10, various times
Experimental: Experiments were carried out essentially as described above.

SMILES: COC1=C(OC)C(=O)C(C/C=C(\C)CC/C=C(\C)CC/C=C(\C)CC/C=C(\C)CC/C=C(\C)CC/C=C(\C)CC/C=C(\C)CC/C=C(\C)CC/C=C(\C)CCC=C(C)C)=C(C)C1=O [Q10, Coenzyme Q10]
- Indication of Early apoptosis (Bcl-2, annexin V, or caspase activation) ([1]; BONE: Ewing's sarcoma (NCI)): Extremely strong
- Minimal CoQ10 Concentration for early apoptosis ([1]; BONE: Ewing's sarcoma (NCI)): 5 µM
- Minimal treatment Time for early apoptosis ([1]; BONE: Ewing's sarcoma (NCI)): 1 h
- Indication of Early apoptosis (Bcl-2, annexin V, or caspase activation) ([1]; BONE: Osteosarcoma (143b)): Very Strong
- Minimal CoQ10 Concentration for early apoptosis ([1]; BONE: Osteosarcoma (143b)): 50 µM
- Minimal treatment Time for early apoptosis ([1]; BONE: Osteosarcoma (143b)): 48 h
- Indication of Early apoptosis (Bcl-2, annexin V, or caspase activation) ([1]; BREAST: BT-20): Strong
- Minimal CoQ10 Concentration for early apoptosis ([1]; BREAST: BT-20): 100 µM
- Minimal treatment Time for early apoptosis ([1]; BREAST: BT-20): 48 h
- Indication of Early apoptosis (Bcl-2, annexin V, or caspase activation) ([1]; BREAST: MCF-7): Strong
- Minimal CoQ10 Concentration for early apoptosis ([1]; BREAST: MCF-7): 50 µM
- Minimal treatment Time for early apoptosis ([1]; BREAST: MCF-7): 48 h
- Indication of Early apoptosis (Bcl-2, annexin V, or caspase activation) ([1]; BREAST: MDA MB 468): Strong
- Minimal CoQ10 Concentration for early apoptosis ([1]; BREAST: MDA MB 468): 100 µM
- Minimal treatment Time for early apoptosis ([1]; BREAST: MDA MB 468): 48 h
- Indication of Early apoptosis (Bcl-2, annexin V, or caspase activation) ([1]; BREAST: SkBr-3): Very Strong
- Minimal CoQ10 Concentration for early apoptosis ([1]; BREAST: SkBr-3): 50 µM
- Minimal treatment Time for early apoptosis ([1]; BREAST: SkBr-3): 24 h
- Indication of Early apoptosis (Bcl-2, annexin V, or caspase activation) ([1]; BREAST: ZR-75): Slight
- Minimal CoQ10 Concentration for early apoptosis ([1]; BREAST: ZR-75): 200 µM
- Minimal treatment Time for early apoptosis ([1]; BREAST: ZR-75): 72 h
- Indication of Early apoptosis (Bcl-2, annexin V, or caspase activation) ([1]; Fibroblasts (nFib)): None
- Indication of Early apoptosis (Bcl-2, annexin V, or caspase activation) ([1]; Heart: Aortic smooth muscle (HASMC)): None
- Indication of Early apoptosis (Bcl-2, annexin V, or caspase activation) ([1]; Keratinocytes (Heka, Hekn)): None
- Indication of Early apoptosis (Bcl-2, annexin V, or caspase activation) ([1]; LIVER: Hep3B): Very Strong
- Minimal CoQ10 Concentration for early apoptosis ([1]; LIVER: Hep3B): 50 µM
- Minimal treatment Time for early apoptosis ([1]; LIVER: Hep3B): 24 h
- Indication of Early apoptosis (Bcl-2, annexin V, or caspase activation) ([1]; LIVER: HepG2): Very Strong
- Minimal CoQ10 Concentration for early apoptosis ([1]; LIVER: HepG2): 50 µM
- Minimal treatment Time for early apoptosis ([1]; LIVER: HepG2): 24 h
- Indication of Early apoptosis (Bcl-2, annexin V, or caspase activation) ([1]; Mammary fiboblasts: 184A1 and 184B5): None
- Indication of Early apoptosis (Bcl-2, annexin V, or caspase activation) ([1]; Melanocytes (Hema, LP)): None
- Indication of Early apoptosis (Bcl-2, annexin V, or caspase activation) ([1]; Melanoma (Skmel 2)): Very Strong
- Minimal CoQ10 Concentration for early apoptosis ([1]; Melanoma (Skmel 2)): 25 µM
- Minimal treatment Time for early apoptosis ([1]; Melanoma (Skmel 2)): 24 h
- Indication of Early apoptosis (Bcl-2, annexin V, or caspase activation) ([1]; Melanoma (Skmel 28)): Strong
- Minimal CoQ10 Concentration for early apoptosis ([1]; Melanoma (Skmel 28)): 20 µM
- Minimal treatment Time for early apoptosis ([1]; Melanoma (Skmel 28)): 24 h
- Indication of Early apoptosis (Bcl-2, annexin V, or caspase activation) ([1]; PANCREAS: PaCa2): Very Strong
- Minimal CoQ10 Concentration for early apoptosis ([1]; PANCREAS: PaCa2): 25 µM
- Minimal treatment Time for early apoptosis ([1]; PANCREAS: PaCa2): 24 h
- Indication of Early apoptosis (Bcl-2, annexin V, or caspase activation) ([1]; PROSTATE: PC3): Very Strong
- Minimal CoQ10 Concentration for early apoptosis ([1]; PROSTATE: PC3): 25 µM
- Minimal treatment Time for early apoptosis ([1]; PROSTATE: PC3): 24 h
- Indication of Early apoptosis (Bcl-2, annexin V, or caspase activation) ([1]; SCC, Squamous cell carcinoma): Very Strong
- Minimal CoQ10 Concentration for early apoptosis ([1]; SCC, Squamous cell carcinoma): 25 µM
- Minimal treatment Time for early apoptosis ([1]; SCC, Squamous cell carcinoma): 24 h
- effect on normal cells, including keratinocytes and dermal fibroblasts ([1]; normal tissue environment): increased proliferation and migration
- efficacy of treatment (induction of apoptosis) across cell types ([1]; panel of oncogenic and normal cell lines): greater in cell types that exhibited increased oncogenicity and/or greater metastatic potential
- INPPL1 Regulation (SCC cells): Down regulated at
- mRNA of AKT1, ANGPTL4, ANGPEP, CCL2, CDH4, CXCL1, EDG1, EFNA3, EFNB2, EGF, FGF1, ID3, IL1B, 1L8, KDR, NRP1, PECAM1, PROK2, SERPINF1, SPHK1, STAB1, TGFB1, VEGFA and VEGFB [2]: modulated
